From US8642653B2, “Ketone compounds and compositions for cholesterol management and related uses” (Esperion Therapeutics, Inc., priority 2003, dated 2014)
Where two headings read alike, the source gives them in different places.

Experiments:
obese female Zucker rats = assay: Daily oral gavage in obese female Zucker rats: serum nonHDL cholesterol, HDL cholesterol, triglycerides, glycemic control indicators, body weight; type: in vivo, rat (Zucker fatty Crl:(Zuc)-faBR); conditions: Rattus norvegicus, 100 mg/kg daily oral gavage
Procedure: Ten- to twelve-week old (400-500 grams) female Zucker fatty rats Crl: (Zuc)-faBR were obtained from Charles River Laboratories. Animals were acclimated to the laboratory environment for seven days. During the acclimation and study period, animals were housed by group in shoebox polycarbonate cages on Cellu-Dri bedding. The temperature and humidity in the animals' quarters (68-78° F.; 30-75% RH) were monitored and the airflow in the room was sufficient to provide several exchanges per hour with 100% fresh filtered air. An automatic timing device provided an alternating 12-hour cycle of light and dark. Rats received pelleted Purina Laboratory Rodent Chow® (5001) prior to and during the drug intervention period except for a 6-hour phase prior to blood sampling. Fresh water was supplied ad libitum via an automatic watering system. Compounds were dissolved, suspended by mixing in a dosing vehicle consisting of 1.5% carboxymethylcellulose/0.2% Tween 20 or 20% ethanol and 80% polyethylene glycol-200 [v/v]. Dose volume of vehicle or vehicle plus each compound was set at 0.25% of body weight in order to deliver the appropriate dose. Doses were administered daily by oral gavage, approximately between 8-10 AM. Regarding blood sampling, animals were fasted for 6 hours prior to all blood collections. Prior to and after 7 days of dosing, a 1.0- to 2.0-mL sample of blood was collected by administering O2/CO2 anesthesia and bleeding from the orbital venous plexus. Following 14 days of dosing, blood was collected by cardiac puncture after euthanasia with CO2. All blood samples were processed for separation of serum and stored at −80° C. until analysis. Commercially available kits were used to determine serum triglycerides (Roche Diagnostic Corporation, Kit No. 148899 or Boehringer Mannheim, Kit No. 1488872), total cholesterol (Roche Diagnostic Corporation, Kit No. 450061), non-esterified fatty acids (Wako Chemicals, Kit No. 994-75409) and β-hydroxybutyrate (Wako Chemicals, Kit No. 417-73501 or Sigma Kit. No. 310-0) on a Hitachi 912 Automatic Analyzer (Roche Diagnostic Corporation). In some instances, an in-house cholesterol reagent was used to determine total serum cholesterol levels. Serum lipoprotein cholesterol levels were determined by lipoprotein profile analysis. Lipoprotein profiles were analyzed using gel-filtration chromatography on a Superose 6HR (1×30 cm) column equipped with on-line detection of total cholesterol as described by Kieft et al (Kieft, K. A.; Bocan, T. M.; Krause, B. R. Rapid on-line determination of cholesterol distribution among plasma lipoproteins after high-performance gel filtration chromatography. J. Lipid Res. 1991, 32, 859-866.). The total cholesterol content of each lipoprotein was calculated by multiplying the independent values determined for serum total cholesterol by the percent area of each lipoprotein in the profile. The percent body weight gain and the ratio of liver to body weight is also determined. Selected data are shown as absolute values or as a percent change of the pretreatment values in Tables 8 and 9.
Select compounds (214c, 210c, and 210g) were further evaluated in the Zucker rat by performing a full dose response and measuring additional serum variables including markers for diabetes (Tables 10-12).

[1] = test system: Lipid Synthesis in Primary Rat Hepatocytes; assay: Inhibition of lipid synthesis ([1-14C]-acetate incorporation) in primary cultures of rat hepatocytes; type: cell-based, rat (Sprague-Dawley); conditions: Hepatocyte, 4 h, 4 h incubation with [1-14C]-acetate, 0-300 μM compound, Table 7, ranges where confidence of estimate is insufficient to assign a value
Procedure: Compounds were tested for inhibition of lipid synthesis in primary cultures of rat hepatocytes. […] Sprague-Dawley rats were anesthetized with intraperitoneal injection of sodium pentobarbital (80 mg/kg). Rat hepatocytes were isolated essentially as described by the method of Seglen (Seglen, P. O. Hepatocyte suspensions and cultures as tools in experimental carcinogenesis. J. Toxicol. Environ. Health 1979, 5, 551-560). Hepatocytes were suspended in Dulbecco's Modified Eagles Medium containing 25 mM D-glucose, 14 mM HEPES, 5 mM L-glutamine, 5 mM leucine, 5 mM alanine, 10 mM lactate, 1 mM pyruvate, 0.2% bovine serum albumin, 17.4 mM non-essential amino acids, 20% fetal bovine serum, 100 nM insulin and 20 μg/mL gentamycin) and plated at a density of 1.5×10^5 cells/cm^2 on collagen-coated 96-well plates. Four hours after plating, media was replaced with the same media without serum. […] Lipid synthesis incubation conditions were initially assessed to ensure the linearity of [1-^14C]-acetate incorporation into hepatocyte lipids for up to 4 hours. Hepatocyte lipid synthesis inhibitory activity was assessed during incubations in the presence of 0.25 μCi [1-^14C]-acetate/well (final radiospecific activity in assay is 1 Ci/mol) and 0, 1, 3, 10, 30, 100 or 300 μM of compounds for 4 hours. […] Lipid radioactivity was assessed by scintillation spectroscopy in a Packard TopCount NXT.

[2] = 168 h, 1 wk, Table 9, read-out: HDL-Cholesterol, Percent Change from Pre-Treatment, 1 wk

SMILES: CC(C)(CCCCCC(=O)CCCCCC(C)(C)C(=O)O)C(=O)O
- change in vivo at 100 mg/kg (obese female Zucker rats; [2]): 70%

SMILES: O=C(CCCCCC1(C(=O)O)CCCC1)CCCCCC1(C(=O)O)CCCC1 [Compound 107m, 1-[11-(1-Carboxycyclopentyl)-6-oxoundecyl]-1-cyclopentanecarboxylic acid]
- melting point: 78 to 85 °C

SMILES: CC(C)(CCCCCCCC(=O)CCCCCCCC(C)(C)C(=O)O)C(=O)O [Compound 107n, 10-Oxo-2,2,18,18-tetramethyl-nonadecanedioic acid]
- melting point: 74 to 77 °C

SMILES: CC(C)(CCCCCCCC(=O)CCCCCCCC(C)(C)C(=O)O)C(=O)O [drawing 538]
- IC50 [1]: 5 µM

SMILES: CC(C)(CCCCCCCC(=O)CCCCCCCC(C)(C)C(=O)O)C(=O)O [drawing 559]
- change in vivo at 100 mg/kg (obese female Zucker rats; [2]): 44%
- change in vivo at 100 mg/kg (obese female Zucker rats; 168 h, 1 wk, Table 9, read-out: NonHDL-Cholesterol, Percent Change from Pre-Treatment, 1 wk): -80%
- change in vivo at 100 mg/kg (obese female Zucker rats; 168 h, 1 wk, Table 9, read-out: TG, Percent Change from Pre-Treatment, 1 wk): -85%
- change in vivo at 100 mg/kg (obese female Zucker rats; 336 h, 2 wk, Table 9, read-out: HDL-Cholesterol, Percent Change from Pre-Treatment, 2 wk): 86%
- change in vivo at 100 mg/kg (obese female Zucker rats; 336 h, 2 wk, Table 9, read-out: NonHDL-Cholesterol, Percent Change from Pre-Treatment, 2 wk): -46%
- change in vivo at 100 mg/kg (obese female Zucker rats; 336 h, 2 wk, Table 9, read-out: TG, Percent Change from Pre-Treatment, 2 wk): -63%

SMILES: O=C(CCCCCC1(C(=O)O)CC1)CCCCCC1(C(=O)O)CC1 [Compound 107l, 1-[11-(1-Carboxycyclopropyl)-6-oxoundecyl]-1-cyclopropanecarboxylic acid]
- melting point: 122 to 123 °C

SMILES: O=C(CCCCC1(C(=O)O)CCCC1)CCCCC1(C(=O)O)CCCC1 [Compound 107g, 1-[9-(1-Carboxycyclopentyl)-5-oxononyl]-1-cyclopentanecarboxylic acid]
- melting point: 99 to 103 °C
